Read-outs that look alike come from different tables or passages of the source.
Assays:
[1] = system: visceral hypersensitivity; set-up: species or system adult female Sprague Dawley rats; settings: rat
[2] = system: castor oil induced diarrhoea; set-up: species or system male NMRI mice; settings: mouse, sc
normal colon transit = system: normal colon transit; set-up: species or system male Sprague Dawley rats; settings: rat

Structure (SMILES) | In vivo agonism hypersensitivity max inhibition % of control ([1]; sc) | In vivo agonism diarrhoea mean score % control [2] | In vivo agonism transit Mean retention time % control (normal colon transit; sc) | In vivo agonism transit Mean retention time % control (normal colon transit; po) | In vivo agonism hypersensitivity max inhibition % of control ([1]; po)
CC1(C)C2CCC(CCN3CCC4(CC3)C(=O)NCN4c3ccccc3)C1C2 (stereo not shown) [Example 1, 8-[2-(6,6-Dimethyl-bicyclo[3.1.1]hept-2-yl)-ethyl]-1-phenyl-1,3,8-triaza-spiro[4.5]decan-4-one] | 49 (s.c.) % of control |  |  |  | 
CNCCCN1CN(c2ccccc2)C2(CCN(CCC3CCC4CC3C4(C)C)CC2)C1=O (stereo not shown) [Example 13, 8-[2-(6,6-Dimethyl-bicyclo[3.1.1]hept-2-yl)-ethyl]-3-(3-methylamino-propyl)-1-phenyl-1,3,8-triaza-spiro[4.5]decan-4-one] |  | 59 (s.c.) % control | 105 (s.c.) % control |  | 
CNCCCCN1CN(c2ccccc2)C2(CCN(CCC3CCC4CC3C4(C)C)CC2)C1=O (stereo not shown) [Example 14] |  | 64 (s.c.) % control | 111 (s.c.) % control |  | 
CN(CCCN1CN(c2ccccc2)C2(CCN(CCC3CCC4CC3C4(C)C)CC2)C1=O)CC1(O)CCNCC1 (stereo not shown) [Example 37, 8-[2-(6,6-Dimethyl-bicyclo[3.1.1]hept-2-yl)-ethyl]-3-{3-[(4-hydroxy-piperidin-4-ylmethyl)-methyl-amino]-propyl}-1-phenyl-1,3,8-triaza-spiro[4.5]decan-4-one] | 34 (s.c.) % of control |  |  |  | 
CN(CCN1CN(c2ccccc2)C2(CCN(CCC3CCC4CC3C4(C)C)CC2)C1=O)C(c1ccco1)C(O)CO (stereo not shown) [Example 51] | 45 (s.c.) % of control |  | 102 (s.c.) % control | 105 (p.o.) % control | 44 (p.o.) % of control

From patent US7241770B2 (priority 2003, dated 2007)
